The record followed here is ChEMBL document CHEMBL1201862, “PubChem BioAssay data set” (2004).

Holding throughout (assay): growth of human tumour cells (NCI), 48 h
The subject of test [1] is NCI-H23.
Test [2] has as its system EKVX.
Test [3] has as its system SK-OV-3.
For test [4], the system named is SW-620.
For test [5], the system named is MOLT-4.
For test [6], the system named is SK-MEL-28.
For test [7], the system named is IGROV-1.
The test system of test [8] is SK-MEL-2.
In test [9] the test system is HCT-15.
Test [10] has as its system HL-60.
Test [11] has as its system U-251.
The test system of test [12] is M14.
Test [13] deals with SF-268.
The subject of test [14] is OVCAR-3.
Test [15] concerns K562.
In test [16] the test system is KM12.
In test [17] the test system is UACC-257.
In test [18] the test system is OVCAR-4.

Each structure is given as a SMILES string.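 Where inhibition never reached the appropriate level, the endpoint shown equals the highest concentration tested. Otherwise, values were interpolated linearly from a five-concentration, 48-hour dose response in 96-well plates. GI50 is the concentration that inhibits growth by half.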 Active and inactive are the calls of the source. No stated cut-off is given here; in the data, active = GI50 up to about 1.1 µM and inactive = higher.

In the case of `C#CCC1(C(=O)OCC)C(=O)c2ccccc2N(C)C1=O` (centres undefined), the GI50 in test [1] is 14.7 µM (inactive); in test [2], > 100 µM (inactive); in test [3], > 100 µM (inactive); in test [4], > 100 µM (inactive); in test [5], 45.2 µM (inactive); in test [6], > 100 µM (inactive). The GI50 is > 100 µM (inactive) in test [7]; > 100 µM (inactive) in [8]; over 100 µM in test [9]; 60.1 µM (inactive) in [10]; > 100 µM (inactive) in [11]; > 100 µM (inactive) in [12]. The figures for the GI50 in test [13], in [14] and in test [15] were 58.7 µM (inactive), > 100 µM (inactive) and 91.8 µM (inactive), respectively.

As to `CC1(C)OC2OC(COC(=O)C=[N+]=[N-])C3OC(C)(C)OC3C2O1` (centres undefined), the GI50 was > 100 µM (inactive) in test [16]; > 100 µM (inactive) in [1]; > 100 µM (inactive) in [2]; > 100 µM (inactive) in [3]; > 100 µM (inactive) in test [4]; > 10 µM (inactive) in test [5]. Also, the GI50 in test [6] is > 100 µM (inactive); in test [7], > 100 µM (inactive); in [8], > 100 µM (inactive); in test [9] it was over 100 µM; in [10], > 100 µM (inactive); in test [17], > 100 µM (inactive). The GI50 in test [11], in test [13], in test [14], in test [18] and in test [15] was > 100 µM (inactive) in each case.

As to `Nc1nc(SCc2ccccc2Cl)c2[nH]cnc2n1`, the GI50 was 74.3 µM (inactive) in test [16]; 66.1 µM (inactive) in [1]; 85.9 µM (inactive) in test [2]; 24.7 µM (inactive) in test [3]; > 100 µM (inactive) in test [4]; 34.6 µM (inactive) in test [5]. The GI50 in test [6] was 68.9 µM (inactive); in [7], 41.8 µM (inactive); in [8], 80.4 µM (inactive); in [9] it was 51.5 µM; in test [10] it was 36.4 µM (inactive); in test [17], 56 µM (inactive). Besides, the GI50 in test [11] was 65.3 µM (inactive); in [12], > 100 µM (inactive); in test [13], 58.7 µM (inactive); in test [14] it was 97.7 µM (inactive); in test [15], 50.2 µM (inactive).

On to `Nc1nc(=O)[nH]c2c1cnn2C1CCCCO1` (centres undefined), for which the GI50 in [16], in test [1], in test [2], in test [4], in test [5] and in test [6] was > 100 µM (inactive) each time. Also, the GI50 is > 100 µM (inactive) in test [7]; > 100 µM (inactive) in test [8]; over 100 µM in [9]; 38.4 µM (inactive) in test [10]; > 100 µM (inactive) in test [17]; > 100 µM (inactive) in [11]. Also, the GI50 in test [12], in test [13], in [18] and in [15] was > 100 µM (inactive) throughout.

Regarding `O=Nc1c(-c2c(O)[nH]c3ccc(I)cc23)[nH]c2ccccc12`, the GI50 in test [16] is 0.282 µM (active); in test [1], 4.58 µM (inactive); in [2], 2.96 µM (inactive); in [3], 2.42 µM (inactive); in test [6], 4.32 µM (inactive); in test [7], 2.13 µM (inactive). Moreover, the GI50 is 1.99 µM (inactive) in test [8]; 3.21 µM in [9]; 2.61 µM (inactive) in [10]; > 31.5 µM (inactive) in [17]; 5.62 µM (inactive) in [11]; > 21.6 µM (inactive) in test [12]. Further, the results for the GI50 in test [13], in [14] and in test [18] were 4.42 µM (inactive), 5.35 µM (inactive) and 3.41 µM (inactive), respectively.

Take `C=C(N=[N+]=[N-])c1cn(C2CC(O)C(CO)O2)c(=O)[nH]c1=O` (centres undefined): the GI50 in [16], in [1], in test [2], in [3], in test [4] and in test [5] was > 100 µM (inactive) each time. Also, the GI50 is > 100 µM (inactive) in [6]; > 100 µM (inactive) in [7]; > 100 µM (inactive) in test [8]; over 100 µM in test [9]; > 100 µM (inactive) in test [10]; > 100 µM (inactive) in test [11]. In addition, the GI50 in [12], in test [14] and in test [15] was > 100 µM (inactive) in each case.

Take `O=c1c2cc3c(=O)n(CCc4ccccc4CO)c(=O)c3cc2c(=O)n1CCc1ccccc1CO`: the GI50 in test [16], in test [1], in test [3], in [4], in [5] and in [6] was > 100 µM (inactive) throughout. In addition, the GI50 in test [7] was > 100 µM (inactive); in test [8] it was > 100 µM (inactive); in [9], over 100 µM; in test [10], > 100 µM (inactive); in test [17], > 100 µM (inactive); in [11] it was > 100 µM (inactive). Moreover, the GI50 in test [13], in test [14], in [18] and in test [15] was > 100 µM (inactive) in each case.

`C=C=CC(NC(=O)c1ccccc1)(C(=O)O)C(F)(F)F` (centres undefined): the GI50 in test [16], in test [1], in [2], in test [4], in [5] and in test [6] was > 100 µM (inactive) each time. The GI50 is > 100 µM (inactive) in test [7]; > 100 µM (inactive) in test [8]; over 100 µM in [9]; > 100 µM (inactive) in test [10]; > 100 µM (inactive) in test [17]; > 100 µM (inactive) in test [11]. Besides, the GI50 in test [12] is > 100 µM (inactive); in [13], > 100 µM (inactive); in test [18], > 10 µM (inactive); in test [15], > 100 µM (inactive).

Turning to `COC(=O)[C@H]1N[C@@H](C(=O)OC)C23CCC[C@H]2CC[C@]1(C(OC)OC)C3`, the GI50 in [16] was > 100 µM (inactive); in test [1] it was > 100 µM (inactive); in test [2], > 100 µM (inactive); in test [3], > 100 µM (inactive); in test [4] it was 56.2 µM (inactive); in test [5] it was > 100 µM (inactive). For the same compound, the GI50 in test [6] is > 100 µM (inactive); in test [7] it was > 100 µM (inactive); in test [8] it was > 100 µM (inactive); in [9], over 100 µM; in test [10], > 100 µM (inactive); in test [17], > 100 µM (inactive). Moreover, the GI50 in test [11] is > 100 µM (inactive); in [12], > 100 µM (inactive); in [13], > 100 µM (inactive); in test [18] it was > 100 µM (inactive); in test [15], 73.6 µM (inactive).
